SMILES strings stand for the structures.

This assay relates to Jurkat cells. Nature of the assay: Jurkat cell proliferation, MTS method: compound alone or combined with bleomycin. The class given is cell-based. Also on record: key: ┌++┘ indicates observation of remarkable enhancement; ┌+┘ indicates moderated enhancement. Particulars: compound plus bleomycin 5 μg/ml or 10 μg/ml, 36 hours, survival rate vs DMSO control. On the procedure:
By using aforementioned synthetic compounds, effects on proliferation of Jurkat cells by sole administration and inhibitory effects on cell proliferation by administration in combination with bleomycin were examined. Materials and methods are as follows. Jurkat cells obtained from Dainippon Pharmaceutical Co. Ltd. were inoculated at about 10,000 cells per well in a 96 well culture plate, and incubated in 10% bovine fetal serum (Irvine Scientific) supplemented with RPMI1640 (ICN) medium in 5% CO2 incubator at 37° C. […] 36 hours after the incubation, the number of living cells was counted by the MTS method.
More specifically, 20 μl of CellTiter96™ AQueous One Solution (Promega) was added per one well, and after the cells were incubated for additional one hour, an absorbance at 490 nm was measured by using a microplate reader. The same culture added with DMSO as a solvent at final concentration of 0.25% was used as a control. The number of cells in the control was considered as 100% survival rate, and for each compound, survival rates by sole administration or a combined administration were calculated. […] In the table, ┌++┘ indicates observation of remarkable enhancement, ┌+┘ indicates moderated enhancement.
For orientation: Formazan colour is commonly taken as a measure of viable cells.
Turning to `Nc1cccc(CNS(=O)(=O)c2ccc3c(O)cccc3c2)c1` [Compound 4-7, N-(3-Aminobenzyl)-5-hydroxynaphthalene-2-sulfonamide], the “Activity (enhancement of inhibitory effect on cell proliferation in combination with bleomycin)” value is “+”. On to `CC(=O)Oc1cccc2cc(S(=O)(=O)NCc3ccc(C(C)(C)C)cc3)ccc12` [Compound 3-4, 5-Acetyloxy-N-[4-(tert-butyl)benzyl]naphthalene-2-sulfonamide], for which the “Activity (enhancement of inhibitory effect on cell proliferation in combination with bleomycin)” value is recorded as “++”. Next, `CC(=O)Oc1cccc2cc(S(=O)(=O)NCc3ccc(C(F)(F)F)cc3)ccc12` [Compound 3-5, 5-Acetyloxy-N-[4-(trifluoromethyl)benzyl]naphthalene-2-sulfonamide]: “+”; `O=S(=O)(NCc1ccccc1C(F)(F)F)c1cccc2c(O)cccc12` [Compound 2-8, N-[2-(Trifluoromethyl)benzyl]-5-hydroxynaphthalene-1-sulfonamide]: “+”; `Cc1ccc(S(=O)(=O)Oc2cccc3c(S(=O)(=O)NCc4ccc([N+](=O)[O-])cc4)cccc23)cc1` [Compound 1-5, N-(4-Nitrobenzyl)-5-{[(4-methylphenyl)sulfonyl]oxy}naphthalene-1-sulfonamide]: “++”. In the case of `O=S(=O)(NCc1cccc2ccccc12)c1cccc2c(O)cccc12` [Compound 2-19, N-(1-Naphthylmethyl)-5-hydroxynaphthalene-1-sulfonamide], the “Activity (enhancement of inhibitory effect on cell proliferation in combination with bleomycin)” value was “++”. As to `Cc1ccc(S(=O)(=O)Oc2cccc3c(S(=O)(=O)NCc4ccc(C)o4)cccc23)cc1` [Compound 1-20, N-[(5-Methylfuran-2-yl)methyl]-5-{[(4-methylphenyl)sulfonyl]oxy}naphthalene-1-sulfonamide], the “Activity (enhancement of inhibitory effect on cell proliferation in combination with bleomycin)” value is on record as “+”. Regarding `Cc1ccc(S(=O)(=O)Oc2cccc3c(S(=O)(=O)NCc4c(F)cccc4F)cccc23)cc1` [Compound 1-2, N-(2,6-Difluorobenzyl)-5-{[(4-methylphenyl)sulfonyl]oxy}naphthalene-1-sulfonamide], the “Activity (enhancement of inhibitory effect on cell proliferation in combination with bleomycin)” value is on record as “+”. The same measure for `O=S(=O)(NCc1ccc(C(F)(F)F)cc1)c1ccc2c(O)cccc2c1` [Compound 4-5, N-[4-(Trifluoromethyl)benzyl]-5-hydroxynaphthalene-2-sulfonamide]: “+”; for `CC(C)(C)c1ccc(CNS(=O)(=O)c2ccc3c(O)cccc3c2)cc1` [Compound 4-4, N-[4-(tert-Butyl)benzyl]-5-hydroxynaphthalene-2-sulfonamide]: “++”; for `COc1cccc(CNS(=O)(=O)c2cccc3c(OS(=O)(=O)c4ccc(C)cc4)cccc23)c1OC` [Compound 1-13, N-(2,3-Dimethoxybenzyl)-5-{[(4-methylphenyl)sulfonyl]oxy}naphthalene-1-sulfonamide]: “+”.
